Type in all cases: in vivo
Holding throughout (conditions): 312 h, evaluated after 13 days, 100=total damage to plant, 0=no damage to plant

Test [1] relates to Amaranthus palmeri (AMAPA). Description: Pre-emergence biological efficacy. As for the experimental part:
(§1) Seeds of weeds and/or crops were sown in standard soil in pots (Amaranthus palmeri (AMAPA), Lolium perenne (LOLPE), Euphorbia heterophylla (EPHHL), Ipomoea hederacea (IPOHE), Setaria faberi (SETFA), Echinochloa crus-galli (ECHCG)). After cultivation for one day under controlled conditions in a glasshouse (at 24/19° C., day/night; 16 hours light), the plants were sprayed with an aqueous spray solution derived from the formulation of the technical active ingredient in a small amount of acetone and a special solvent and emulsifier mixture referred to as IF50 (11.12% Emulsogen EL360™+44.44% N-methylpyrrolidone+44.44% Dowanol DPM glycol ether), to create a 50 g/l solution which was then diluted using 0.2% Genapol XO80 as diluent to give the desired final dose of test compound.
(§2) The test plants were then grown under controlled conditions in the glasshouse (at 24/18° C., day/night; 15 hours light; 50% humidity) and watered twice daily. After 13 days the test was evaluated (100=total damage to plant; 0=no damage to plant).

In test [2] the test system is Echinochloa crus-galli (ECHCG). In words: Pre-emergence biological efficacy. The procedure:
as §1, §2

For test [3], the system named is Euphorbia heterophylla (EPHHL). Description: Pre-emergence biological efficacy. As for the experimental part:
as §1, §2

Test [4] has as its system Ipomoea hederacea (IPOHE). In words: Pre-emergence biological efficacy. The procedure: as §1, §2
Test [5] concerns Lolium perenne (LOLPE). Description: Pre-emergence biological efficacy. The procedure:
as §1, §2

Test [6] has as its system Setaria faberi (SETFA). Description: Pre-emergence biological efficacy. The procedure:
as §1, §2

Test [7] relates to Amaranthus palmeri (AMAPA). In words: Post-emergence biological efficacy. As for the experimental part: as §1, with “Chenopodium album (CHEAL),” for “Lolium perenne (LOLPE),”, “(IPOHE), Eleusine indica (ELEIN), Lolium perenne (LOLPE), Digitaria sanguinalis (DIGSA),” for “(IPOHE),”, “14 days” for “one day”, “compound. The test plants were then grown under controlled conditions in the glasshouse (at 24/18° C., day/night; 15 hours light; 50% humidity) and watered twice daily. After 13 days the test was evaluated (100=total damage to plant; 0=no damage to plant).” for “compound.”

Test [8] concerns Chenopodium album (CHEAL). Description: Post-emergence biological efficacy. As for the experimental part:
as §1, with “Chenopodium album (CHEAL),” for “Lolium perenne (LOLPE),”, “(IPOHE), Eleusine indica (ELEIN), Lolium perenne (LOLPE), Digitaria sanguinalis (DIGSA),” for “(IPOHE),”, “14 days” for “one day”, “compound. The test plants were then grown under controlled conditions in the glasshouse (at 24/18° C., day/night; 15 hours light; 50% humidity) and watered twice daily. After 13 days the test was evaluated (100=total damage to plant; 0=no damage to plant).” for “compound.”

Test [9] deals with Digitaria sanguinalis (DIGSA). In words: Post-emergence biological efficacy. As for the experimental part: as §1, with “Chenopodium album (CHEAL),” for “Lolium perenne (LOLPE),”, “(IPOHE), Eleusine indica (ELEIN), Lolium perenne (LOLPE), Digitaria sanguinalis (DIGSA),” for “(IPOHE),”, “14 days” for “one day”, “compound. The test plants were then grown under controlled conditions in the glasshouse (at 24/18° C., day/night; 15 hours light; 50% humidity) and watered twice daily. After 13 days the test was evaluated (100=total damage to plant; 0=no damage to plant).” for “compound.”

Test [10] has as its system Echinochloa crus-galli (ECHCG). Description: Post-emergence biological efficacy. As for the experimental part:
as §1, with “Chenopodium album (CHEAL),” for “Lolium perenne (LOLPE),”, “(IPOHE), Eleusine indica (ELEIN), Lolium perenne (LOLPE), Digitaria sanguinalis (DIGSA),” for “(IPOHE),”, “14 days” for “one day”, “compound. The test plants were then grown under controlled conditions in the glasshouse (at 24/18° C., day/night; 15 hours light; 50% humidity) and watered twice daily. After 13 days the test was evaluated (100=total damage to plant; 0=no damage to plant).” for “compound.”

The next test relates to Eleusine indica (ELEIN). In words: Post-emergence biological efficacy. The procedure:
as §1, with “Chenopodium album (CHEAL),” for “Lolium perenne (LOLPE),”, “(IPOHE), Eleusine indica (ELEIN), Lolium perenne (LOLPE), Digitaria sanguinalis (DIGSA),” for “(IPOHE),”, “14 days” for “one day”, “compound. The test plants were then grown under controlled conditions in the glasshouse (at 24/18° C., day/night; 15 hours light; 50% humidity) and watered twice daily. After 13 days the test was evaluated (100=total damage to plant; 0=no damage to plant).” for “compound.”

Test [11] relates to Euphorbia heterophylla (EPHHL). In words: Post-emergence biological efficacy. The procedure:
as §1, with “Chenopodium album (CHEAL),” for “Lolium perenne (LOLPE),”, “(IPOHE), Eleusine indica (ELEIN), Lolium perenne (LOLPE), Digitaria sanguinalis (DIGSA),” for “(IPOHE),”, “14 days” for “one day”, “compound. The test plants were then grown under controlled conditions in the glasshouse (at 24/18° C., day/night; 15 hours light; 50% humidity) and watered twice daily. After 13 days the test was evaluated (100=total damage to plant; 0=no damage to plant).” for “compound.”

In test [12] the test system is Ipomoea hederacea (IPOHE). In words: Post-emergence biological efficacy. As for the experimental part: as §1, with “Chenopodium album (CHEAL),” for “Lolium perenne (LOLPE),”, “(IPOHE), Eleusine indica (ELEIN), Lolium perenne (LOLPE), Digitaria sanguinalis (DIGSA),” for “(IPOHE),”, “14 days” for “one day”, “compound. The test plants were then grown under controlled conditions in the glasshouse (at 24/18° C., day/night; 15 hours light; 50% humidity) and watered twice daily. After 13 days the test was evaluated (100=total damage to plant; 0=no damage to plant).” for “compound.”

Test [13] concerns Lolium perenne (LOLPE). Description: Post-emergence biological efficacy. The procedure:
as §1, with “Chenopodium album (CHEAL),” for “Lolium perenne (LOLPE),”, “(IPOHE), Eleusine indica (ELEIN), Lolium perenne (LOLPE), Digitaria sanguinalis (DIGSA),” for “(IPOHE),”, “14 days” for “one day”, “compound. The test plants were then grown under controlled conditions in the glasshouse (at 24/18° C., day/night; 15 hours light; 50% humidity) and watered twice daily. After 13 days the test was evaluated (100=total damage to plant; 0=no damage to plant).” for “compound.”

Test [14] relates to Setaria faberi (SETFA). Description: Post-emergence biological efficacy. As for the experimental part:
as §1, with “Chenopodium album (CHEAL),” for “Lolium perenne (LOLPE),”, “(IPOHE), Eleusine indica (ELEIN), Lolium perenne (LOLPE), Digitaria sanguinalis (DIGSA),” for “(IPOHE),”, “14 days” for “one day”, “compound. The test plants were then grown under controlled conditions in the glasshouse (at 24/18° C., day/night; 15 hours light; 50% humidity) and watered twice daily. After 13 days the test was evaluated (100=total damage to plant; 0=no damage to plant).” for “compound.”

On to `CCOC(=O)[C@H](C)OC(=O)c1cc(-n2c(=O)n(C)c(=S)n(C)c2=O)c(F)cc1Cl` [Compound 1-63 (S-enantiomer), [(1S)-2-ethoxy-1-methyl-2-oxo-ethyl]-2-chloro-5-(3,5-dimethyl-2,6-dioxo-4-thioxo-1,3,5-triazinan-1-yl)-4-fluoro-benzoate], for which the pest or weed control at 250 g/ha in test [1] was 100%; in [2] it was 100%; in test [3], 90%; in [4], 60%; in the test with Lolium perenne (LOLPE) [5], 90%; in the test with Setaria faberi (SETFA) [6], 80%. Also, the pest or weed control at 250 g/ha (in test [7]; in test [8]; in [9]; in test [10]; in the test with Eleusine indica (ELEIN); in test [11]) was 100% throughout. Further, the pest or weed control at 250 g/ha (in test [12]; in the test on Lolium perenne (LOLPE) [13]; with Setaria faberi (SETFA) [14]) was 100% throughout.

Turning to `CCOC(=O)C(CC)OC(=O)c1cc(-n2c(=O)n(C)c(=S)n(C)c2=O)c(F)cc1Cl` (stereo not drawn) [Compound 1-114, 1-Ethoxycarbonylpropyl 2-chloro-5-(3,5-dimethyl-2,6-dioxo-4-thioxo-1,3,5-triazinan-1-yl)-4-fluoro-benzoate], the pest or weed control at 250 g/ha stood at 100% in test [1]; 100% in [2]; 40% in test [3]; 10% in test [4]; 70% in the test on Lolium perenne (LOLPE) [5]; 10% in the test on Setaria faberi (SETFA) [6]. In addition, the pest or weed control at 250 g/ha in test [7] amounted to 20%; in [8] it was 70%; in test [9], 20%; in test [10], 60%; in the test with Eleusine indica (ELEIN), 20%; in [11] it was 70%. Further, the figures for the pest or weed control at 250 g/ha (in [12]; with Lolium perenne (LOLPE) [13]; in the test with Setaria faberi (SETFA) [14]) were 40%, 30% and 30%, respectively.

`CCNC(=O)C(C)(C)OC(=O)c1cc(-n2c(=O)n(C)c(=S)n(C)c2=O)c(F)cc1Cl` [Compound 1-168, [2-(ethylamino)-1,1-dimethyl-2-oxo-ethyl] 2-chloro-5-(3,5-dimethyl-2,6-dioxo-4-thioxo-1,3,5-triazinan-1-yl)-4-fluoro-benzoate]: the pest or weed control at 250 g/ha in test [1] is 100%; in test [2], 100%; in [3] it was 100%; in test [4], 90%; in the test with Lolium perenne (LOLPE) [5], 100%; with Setaria faberi (SETFA) [6], 100%. Moreover, the pest or weed control at 250 g/ha (in test [7]; in test [8]; in test [9]; in test [10]; with Eleusine indica (ELEIN); in test [11]) was 100% throughout. Moreover, the pest or weed control at 250 g/ha (in [12]; with Lolium perenne (LOLPE) [13]; in the test with Setaria faberi (SETFA) [14]) was 100% each time.

For `CCOC(=O)C1(NC(=O)c2cc(-n3c(=O)n(C)c(=S)n(C)c3=O)c(F)cc2Cl)CC1` [Compound 1-240, ethyl 1-[[2-chloro-5-(3,5-dimethyl-2,6-dioxo-4-thioxo-1,3,5-triazinan-1-yl)-4-fluoro-benzoyl]amino]cyclopropanecarboxylate], the pest or weed control at 250 g/ha was found to be 100% in test [1]; 30% in test [2]; 100% in test [3]; 10% in [4]; 30% in the test on Lolium perenne (LOLPE) [5]; 70% with Setaria faberi (SETFA) [6]. The pest or weed control at 250 g/ha in test [7] was 100%; in test [8] it was 100%; in test [9] it was 70%; in [10] it was 30%; with Eleusine indica (ELEIN), 100%; in [11] it was 100%. In addition, the pest or weed control at 250 g/ha turned out to be 60% in [12], 90% in the test on Lolium perenne (LOLPE) [13] and 80% with Setaria faberi (SETFA) [14].

For the compound `CCOC(=O)CCNC(=O)c1cc(-n2c(=O)n(C)c(=S)n(C)c2=O)c(F)cc1Cl` [Compound 1-342, Ethyl 3-[[2-chloro-5-(3,5-dimethyl-2,6-dioxo-4-thioxo-1,3,5-triazinan-1-yl)-4-fluoro-benzoyl]amino]propanoate], the pest or weed control at 250 g/ha in test [1] was 80%; in test [2], 90%; in test [3], 90%; in [4] it was 60%; in the test on Lolium perenne (LOLPE) [5] it was 70%; in the test on Setaria faberi (SETFA) [6], 80%. Moreover, the pest or weed control at 250 g/ha was found to be 30% in [7]; 30% in [8]; 50% in test [9]; 80% in test [10]; 10% in the test with Eleusine indica (ELEIN); 40% in [11]. In addition, the pest or weed control at 250 g/ha worked out at 70% in test [12], 20% in the test with Lolium perenne (LOLPE) [13] and 80% in the test with Setaria faberi (SETFA) [14].

As for `CCOC(=O)C[C@H](C)OC(=O)c1cc(-n2c(=O)n(C)c(=S)n(C)c2=O)ccc1Cl` [Compound 1-360 (S-enantiomer), [(1S)-3-ethoxy-1-methyl-3-oxo-propyl] 2-chloro-5-(3,5-dimethyl-2,6-dioxo-4-thioxo-1,3,5-triazinan-1-yl)benzoate], the pest or weed control at 250 g/ha in test [1] worked out at 80%; in [2], 80%; in test [3], 30%; in [4] it was 20%; in the test with Lolium perenne (LOLPE) [5] it was 70%; with Setaria faberi (SETFA) [6] it was 90%. Besides, the pest or weed control at 250 g/ha in test [7] is 100%; in test [8], 100%; in test [9] it was 100%; in test [10] it was 100%; with Eleusine indica (ELEIN), 90%; in test [11], 90%. The pest or weed control at 250 g/ha in test [12] came to 70%; in the test with Lolium perenne (LOLPE) [13], 100%; in the test on Setaria faberi (SETFA) [14], 100%.

Consider `CCOC(=O)C[C@H](C)OC(=O)c1cc(-n2c(=O)n(C)c(=S)n(C)c2=O)c(F)cc1Cl` [Compound 1-369 (S-enantiomer), [(1S)-3-ethoxy-1-methyl-3-oxo-propyl]-2-chloro-5-(3,5-dimethyl-2,6-dioxo-4-thioxo-1,3,5-triazinan-1-yl)-4-fluoro-benzoate], for which the pest or weed control at 250 g/ha in test [1] was 100%; in test [2] it was 100%; in test [3], 90%; in test [4], 50%; with Lolium perenne (LOLPE) [5], 90%; in the test on Setaria faberi (SETFA) [6], 100%. In addition, the pest or weed control at 250 g/ha (in test [7]; in test [8]; in test [9]; in test [10]; with Eleusine indica (ELEIN); in test [11]) was 100% throughout. The pest or weed control at 250 g/ha in [12] came out at 90%; in the test with Lolium perenne (LOLPE) [13], 100%; with Setaria faberi (SETFA) [14], 100%.

The values are drawn from patent US20250127170A1, “TRIAZINE HERBICIDAL COMPOUNDS” (SYNGENTA CROP PROTECTION AG, priority 2021, published 2025).
